This note sets out measurements from patent US20240246937A1 (MERCK SHARP & DOHME LLC, priority 2021, published 2024).

The target of this test is recombinant IL4I1 (Homo sapiens (Human), UniProt Q96RQ9). As to the kind of experiment: IL4I1 Enzymatic Assay (Amplex Red/HRP coupled fluorescence detection of H2O2). The class given is biochemical. The settings on record: 240 min; recombinant IL4I1, four-hour pre-incubation with compound. The gist of the method: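 Recombinant human IL4I1 (1 nM final) pre-incubated 4 h with compound at ambient temperature in 50 mM Hepes pH 7.0, 0.005% Tween20. Started with 1 mM each Phe/Tyr/Trp plus Amplex Red/HRP; H2O2-derived resorufin fluorescence read after 120 min; EC50 from ten-point 1:3 titration, four-parameter fit.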
Sequence of recombinant IL4I1 (Q96RQ9 22-567): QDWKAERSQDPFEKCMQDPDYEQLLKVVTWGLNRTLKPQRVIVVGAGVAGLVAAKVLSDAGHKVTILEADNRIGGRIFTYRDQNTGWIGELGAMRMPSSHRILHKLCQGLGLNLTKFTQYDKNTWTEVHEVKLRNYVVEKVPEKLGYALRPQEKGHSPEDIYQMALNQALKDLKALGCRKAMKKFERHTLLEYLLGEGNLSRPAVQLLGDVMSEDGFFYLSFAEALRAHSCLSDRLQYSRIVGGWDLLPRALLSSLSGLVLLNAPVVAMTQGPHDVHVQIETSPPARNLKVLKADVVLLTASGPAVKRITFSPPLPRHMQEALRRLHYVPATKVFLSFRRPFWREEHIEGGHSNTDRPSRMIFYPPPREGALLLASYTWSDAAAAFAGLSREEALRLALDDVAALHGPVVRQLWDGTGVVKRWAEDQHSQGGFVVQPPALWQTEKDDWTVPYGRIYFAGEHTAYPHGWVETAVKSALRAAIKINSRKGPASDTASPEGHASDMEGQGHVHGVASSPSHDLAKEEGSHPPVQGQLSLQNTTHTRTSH

The EC50 is the concentration at which the effect is half-maximal. As for `O=c1c(=O)n(C23CC(C2)C3)ccn1Cc1nnc(-c2cccc(F)c2)s1` [Example 144, 1-(bicyclo[1.1.1]pentan-1-yl)-4-((5-(3-fluorophenyl)-1,3,4-thiadiazol-2-yl)methyl)-1,4-dihydropyrazine-2,3-dione], the EC50 came to 2 nM. For the compound `O=c1c(=O)n(C2CCCC2)ccn1Cc1nnc(-c2cccc(F)c2)s1` [Example 145, 1-cyclopentyl-4-((5-(3-fluorophenyl)-1,3,4-thiadiazol-2-yl)methyl)-1,4-dihydropyrazine-2,3-dione], the EC50 is 1 nM. The result for `O=C1C(=O)N(C23CC(C2)C3)CCN1Cc1cc(-c2ccccc2)on1` [Example 146, 1-(bicyclo[1.1.1]pentan-1-yl)-4-((5-phenylisoxazol-3-yl)methyl)piperazine-2,3-dione] reads 3 nM; that for `O=c1c(=O)n(C23CC(C2)C3)ccn1Cc1cc(-c2ccccc2)on1` [Example 147, 1-(bicyclo[1.1.1]pentan-1-yl)-4-((5-phenylisoxazol-3-yl)methyl)-1,4-dihydropyrazine-2,3-dione], 2 nM.

Regarding `O=C1C(=O)N(C2CCC2)CCN1Cc1cc(-c2ccccc2)no1` [Example 148, 1-cyclobutyl-4-((3-phenylisoxazol-5-yl)methyl)piperazine-2,3-dione], the EC50 was 2 nM. The result for `O=C1C(=O)N(C2CCC2)CCN1Cc1cc(-c2ccccc2F)no1` [Example 149, 1-cyclobutyl-4-((3-(2-fluorophenyl)isoxazol-5-yl)methyl)piperazine-2,3-dione] reads 3 nM. On to `O=C1C(=O)N(C2CCC2)CCN1Cc1cc(-c2ccc(F)cc2)no1` [Example 150, 1-cyclobutyl-4-((3-(4-fluorophenyl)isoxazol-5-yl)methyl)piperazine-2,3-dione], for which the EC50 was found to be 3 nM.

Consider `O=c1c(=O)n(C2CCC2)ccn1Cc1cc(-c2ccccc2)no1` [Example 151, 1-cyclobutyl-4-((3-phenylisoxazol-5-yl)methyl)-1,4-dihydropyrazine-2,3-dione], for which the 50% effective concentration (EC50) is 1 nM.

Consider `O=c1c(=O)n(C2CCC2)ccn1Cc1cc(-c2ccccc2F)no1` [Example 152, 1-cyclobutyl-4-((3-(2-fluorophenyl)isoxazol-5-yl)methyl)-1,4-dihydropyrazine-2,3-dione], for which the EC50 turned out to be 2 nM. The result for `O=C1C(=O)N(C2CCCC2)CCN1Cc1cc(-c2cccc(F)c2)no1` [Example 153, 1-cyclopentyl-4-((3-(3-fluorophenyl)isoxazol-5-yl)methyl)piperazine-2,3-dione] reads 3 nM. Consider `O=C1C(=O)N(C2CCCC2)CCN1Cc1cc(-c2ccccc2F)no1` [Example 154, 1-cyclopentyl-4-((3-(2-fluorophenyl)isoxazol-5-yl)methyl)piperazine-2,3-dione], for which the EC50 turned out to be 3 nM. As to `O=c1c(=O)n(C2CCCC2)ccn1Cc1cc(-c2cccc(F)c2)no1` [Example 155, 1-cyclopentyl-4-((3-(3-fluorophenyl)isoxazol-5-yl)methyl)-1,4-dihydropyrazine-2,3-dione], the EC50 is 2 nM. For the compound `O=c1c(=O)n(C2CCCC2)ccn1Cc1cc(-c2ccccc2F)no1` [Example 156, 1-cyclopentyl-4-((3-(2-fluorophenyl)isoxazol-5-yl)methyl)-1,4-dihydropyrazine-2,3-dione], the EC50 worked out at 2 nM. The result for `O=c1c(=O)n(C2CCC2)ccn1Cc1cc(-c2cccc(F)c2)no1` [Example 157, 1-cyclobutyl-4-((3-(3-fluorophenyl)isoxazol-5-yl)methyl)-1,4-dihydropyrazine-2,3-dione] reads 1 nM; that for `O=C1C(=O)N(C2CCC2)CCN1Cc1cc(-c2cccc(F)c2)no1` [Example 158, 1-cyclobutyl-4-((3-(3-fluorophenyl)isoxazol-5-yl)methyl)piperazine-2,3-dione], 4 nM.

`O=c1c(=O)n(C2CCC2)ccn1Cc1cc(-c2ccc(F)cc2)no1` [Example 159, 1-cyclobutyl-4-((3-(4-fluorophenyl)isoxazol-5-yl)methyl)-1,4-dihydropyrazine-2,3-dione]: the EC50 turned out to be 1 nM. For `O=c1c(=O)n(C2CCC2)ccn1Cc1cnn(-c2ccccc2)c1` [Example 160, 1-cyclobutyl-4-((1-phenyl-1H-pyrazol-4-yl)methyl)-1,4-dihydropyrazine-2,3-dione], the EC50 was 5 nM. The result for `O=c1c(=O)n(C2CCC2)ccn1Cc1cc(-c2ccccn2)no1` [Example 161, 1-cyclobutyl-4-((3-(pyridin-2-yl)isoxazol-5-yl)methyl)-1,4-dihydropyrazine-2,3-dione] reads 5 nM. For the compound `O=C1C(=O)N(C2CCCC2)CCN1Cc1cc(-c2ccc(F)cc2)no1` [Example 162, 1-cyclopentyl-4-((3-(4-fluorophenyl)isoxazol-5-yl)methyl)piperazine-2,3-dione], the EC50 came out at 4 nM.

As for `O=c1c(=O)n(C2CCCC2)ccn1Cc1cc(-c2ccccn2)no1` [Example 163, 1-cyclopentyl-4-((3-(pyridin-2-yl)isoxazol-5-yl)methyl)-1,4-dihydropyrazine-2,3-dione], the EC50 came to 6 nM. The result for `O=c1c(=O)n(C2CCCC2)ccn1Cc1cc(-c2ccc(F)cc2)no1` [Example 164, 1-cyclopentyl-4-((3-(4-fluorophenyl)isoxazol-5-yl)methyl)-1,4-dihydropyrazine-2,3-dione] reads 1 nM. The result for `O=c1c(=O)n(C2CCC2)ccn1Cc1cc(-c2ccccc2)ns1` [Example 165] reads 12 nM. Take `CC1(N2CCN(Cc3nnc(-c4ccccc4)s3)C(=O)C2=O)CCC1` [Example 166, 1-(1-methylcyclobutyl)-4-((5-phenyl-1,3,4-thiadiazol-2-yl)methyl)piperazine-2,3-dione]: the EC50 is 10 nM. Take `CC1(N2CCN(Cc3cc(-c4ccccc4)on3)C(=O)C2=O)CCC1` [Example 167, 1-(1-methylcyclobutyl)-4-((5-phenylisoxazol-3-yl)methyl)piperazine-2,3-dione]: the EC50 was determined as 9 nM. Consider `O=c1c(=O)n(C2CCC2)ccn1Cc1cc(-c2ccccc2)n[nH]1` [Example 168, 1-cyclobutyl-4-((3-phenyl-1H-pyrazol-5-yl)methyl)-1,4-dihydropyrazine-2,3-dione], for which the EC50 is 6 nM.

In the case of `O=c1c(=O)n(C23CC(C2)C3)ccn1Cc1cc(-c2ccccn2)on1` [Example 169, 1-(bicyclo[1.1.1]pentan-1-yl)-4-((5-(pyridin-2-yl)isoxazol-3-yl)methyl)-1,4-dihydropyrazine-2,3-dione], the EC50 is 7 nM. As for `O=C1C(=O)N([C@H]2C[C@H]3C[C@H]3C2)CCN1Cc1cc(-c2ccccc2)no1` [Example 170, 1-((cis)-bicyclo[3.1.0]hexan-3-yl)-4-((3-phenylisoxazol-5-yl)methyl)piperazine-2,3-dione], the EC50 was found to be 4 nM. The result for `O=C1C(=O)N(C23CC(C2)C3)CCN1Cc1cc(-c2ccccc2)no1` [Example 171, 1-(bicyclo[1.1.1]pentan-1-yl)-4-((3-phenylisoxazol-5-yl)methyl)piperazine-2,3-dione] reads 6 nM; that for `O=c1c(=O)n(C23CC(C2)C3)ccn1Cc1cc(-c2ccccn2)no1` [Example 172, 1-(bicyclo[1.1.1]pentan-1-yl)-4-((3-(pyridin-2-yl)isoxazol-5-yl)methyl)-1,4-dihydropyrazine-2,3-dione], 7 nM.
